The text below walks through data of patent US7803804B2, “Substituted pyrazines for use in the treatment of inflammatory or allergic conditions” (Novartis AG, priority 2005, dated 2010).

In general, IC50 refers to the point on the concentration scale where inhibition reaches its midpoint.

The test has as its target T1, epithelial sodium channel (ENaC) (Homo sapiens, UniProt P37088+P51168+P51170).
T1 construct: host or cells: primary human bronchial epithelial cells (HBECs), differentiated at air-liquid interface
T1 sequence (P37088 1-669): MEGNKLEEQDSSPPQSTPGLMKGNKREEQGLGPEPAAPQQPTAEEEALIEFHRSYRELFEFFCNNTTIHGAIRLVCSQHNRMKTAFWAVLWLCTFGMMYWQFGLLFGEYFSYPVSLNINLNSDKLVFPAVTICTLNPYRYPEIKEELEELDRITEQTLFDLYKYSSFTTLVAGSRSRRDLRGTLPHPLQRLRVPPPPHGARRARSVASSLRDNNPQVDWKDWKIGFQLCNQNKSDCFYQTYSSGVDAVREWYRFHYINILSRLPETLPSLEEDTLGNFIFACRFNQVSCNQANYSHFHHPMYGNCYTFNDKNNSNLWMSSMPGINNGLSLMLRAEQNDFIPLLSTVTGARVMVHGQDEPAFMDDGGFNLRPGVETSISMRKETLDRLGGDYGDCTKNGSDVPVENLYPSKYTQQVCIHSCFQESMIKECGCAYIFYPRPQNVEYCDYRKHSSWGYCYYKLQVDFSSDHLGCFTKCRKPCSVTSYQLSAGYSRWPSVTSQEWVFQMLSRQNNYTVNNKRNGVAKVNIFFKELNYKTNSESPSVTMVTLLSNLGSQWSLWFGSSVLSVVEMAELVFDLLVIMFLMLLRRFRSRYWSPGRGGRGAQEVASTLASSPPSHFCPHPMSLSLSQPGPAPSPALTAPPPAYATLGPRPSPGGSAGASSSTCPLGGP
T1 sequence (P51168 1-640): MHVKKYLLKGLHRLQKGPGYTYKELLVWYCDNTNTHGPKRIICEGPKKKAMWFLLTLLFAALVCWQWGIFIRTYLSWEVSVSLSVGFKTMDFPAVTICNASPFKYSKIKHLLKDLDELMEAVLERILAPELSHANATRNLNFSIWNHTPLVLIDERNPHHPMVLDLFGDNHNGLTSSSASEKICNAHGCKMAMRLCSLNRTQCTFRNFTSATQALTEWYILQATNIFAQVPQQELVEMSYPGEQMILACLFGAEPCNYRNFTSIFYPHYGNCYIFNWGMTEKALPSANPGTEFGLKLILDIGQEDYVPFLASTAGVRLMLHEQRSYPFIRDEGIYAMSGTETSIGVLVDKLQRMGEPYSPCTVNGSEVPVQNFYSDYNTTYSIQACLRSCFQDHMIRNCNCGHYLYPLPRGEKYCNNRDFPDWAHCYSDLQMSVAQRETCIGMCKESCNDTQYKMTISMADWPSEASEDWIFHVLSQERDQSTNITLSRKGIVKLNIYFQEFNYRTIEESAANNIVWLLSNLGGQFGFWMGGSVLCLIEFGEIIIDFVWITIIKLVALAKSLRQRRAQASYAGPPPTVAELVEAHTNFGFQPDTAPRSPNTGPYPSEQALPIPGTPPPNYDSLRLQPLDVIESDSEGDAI
T1 sequence (P51170 1-649): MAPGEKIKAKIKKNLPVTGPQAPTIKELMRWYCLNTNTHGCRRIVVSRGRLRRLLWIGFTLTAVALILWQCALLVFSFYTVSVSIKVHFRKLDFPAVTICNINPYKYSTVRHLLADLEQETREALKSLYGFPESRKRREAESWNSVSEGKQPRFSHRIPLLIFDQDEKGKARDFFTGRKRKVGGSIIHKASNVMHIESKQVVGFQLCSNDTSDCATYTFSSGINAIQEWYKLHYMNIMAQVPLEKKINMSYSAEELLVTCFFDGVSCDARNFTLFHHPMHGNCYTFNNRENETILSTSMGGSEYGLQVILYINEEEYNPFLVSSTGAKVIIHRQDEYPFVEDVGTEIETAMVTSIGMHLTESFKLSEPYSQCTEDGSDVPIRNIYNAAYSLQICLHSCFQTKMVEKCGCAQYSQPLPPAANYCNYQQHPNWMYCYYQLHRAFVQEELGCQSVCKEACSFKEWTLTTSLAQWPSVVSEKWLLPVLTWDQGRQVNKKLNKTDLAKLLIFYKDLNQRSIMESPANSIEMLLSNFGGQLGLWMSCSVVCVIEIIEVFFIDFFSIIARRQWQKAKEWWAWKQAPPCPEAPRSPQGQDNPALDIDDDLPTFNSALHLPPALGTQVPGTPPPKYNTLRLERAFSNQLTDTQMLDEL
Briefly: Short circuit current (ISC) measurements in human bronchial epithelial cells, inhibition of the amiloride-sensitive ISC. It counts as cell-based. The following applies: air-liquid interface culture, Ussing chamber, compound added to the apical chamber. The method, then: Compounds of formula (I) and their pharmaceutically acceptable salts, hereinafter referred to alternatively as “agents of the invention”, are useful as pharmaceuticals. In particular, the compounds have good ENaC blocker activity and may be tested in the following assays.
Human Bronchial Epithelial cells (HBECS) (Cambrex) were cultured under air-liquid interface conditions to provide a well differentiated mucociliary phenotype.
HBECs were cultured using a modification of the method described by Gray and colleagues (Gray et al., 1996). […]
Snapwell inserts were mounted in Vertical Diffusion Chambers (Costar) and were bathed with continuously gassed Ringer solution (5% CO2 in O2; pH 7.4) maintained at 37° C. containing (in mM): 120 NaCl, 25 NaHCO3, 3.3 KH2PO4, 0.8 K2HPO4, 1.2 CaCl2, 1.2 MgCl2, and 10 glucose. […] RT was measured by applying a 1- or 2-mV pulse at 30-s intervals and calculating RT by Ohm's law. Data were recorded using a PowerLab workstation (ADInstruments).
Test compounds were prepared as a 10 mM stock solution in DMSO (95%). […] At the completion of the concentration-response experiment, amiloride (10 μM) was added into the apical chamber to enable the total amiloride-sensitive current to be measured. […]
Results are expressed as the mean % inhibition of the amiloride-sensitive ISC. […] Cell inserts were typically run in duplicate and the IC50 calculated on the mean % inhibition data.

For `N=C(NCC1CCC(CNC(=N)NC(=O)c2nc(Cl)c(N)nc2N)CC1)NC(=O)c1nc(Cl)c(N)nc1N` (centres unmarked) [Example 2], the 50% inhibitory concentration (IC50) was found to be 5.7 nM.
`N=C(NC(=O)c1nc(Cl)c(N)nc1N)N[C@H]1CC[C@H](NC(=N)NC(=O)c2nc(Cl)c(N)nc2N)CC1` [Example 5] returned an IC50 of 0.2 nM.
